Measured values as given in patent US5817756A, “Pseudo- and non-peptide bradykinin receptor antagonists” (Scios Inc., priority 1995, dated 1998).
Starred links: 1 amine or outer side, 2 acyl side, 3 side chain; linkers in the order of their positions; H or OH if unused. Non-standard residues stand in square brackets, D forms with d. Residues, ends and D or L forms follow the SMILES beside them. X3 = O=C(Cn1c(=O)n(C2CCN([*:1])CC2)c2ccccc21)[*:2]; X7 = O=C(Cn1c(=O)c2ccccc2c2ccc(N[*:1])cc21)[*:2]; Butenoyl(2E,4-amino) = O=C(/C=C/CN[*:1])[*:2]; X4 = O=C(Cn1c2c(c3ccccc31)CN([*:1])CC2)[*:2]; Oic = O=C(O)[C@@H]1C[C@@H]2CCCC[C@@H]2N1; X1 = O=C(C/C=C/c1ccccc1CN[*:1])[*:2]; X6 = O=C(/C=C/c1ccccc1CCN[*:1])[*:2]; X2 = O=C(/C=C/c1ccccc1CN[*:1])[*:2]; dTic = O=C(O)[C@H]1Cc2ccccc2CN1; 12Ado = NCCCCCCCCCCCC(=O)O; Nphe = O=C(O)CNCc1ccccc1; Ahx = NCCCCCC(=O)O

molecular target: T1, human bradykinin B2 receptor (Homo sapiens, UniProt P30411); assay: Radioligand binding, H2O.2 cell membranes, 3H-bradykinin; conditions: Table 1, read-out: Radioligand Binding Human 3HBK
T1 construct: The HindIII/XbaI fragment of one full-length clone, 126A, was inserted into pcDNAI neo vector; expressed in transfected cells
T1 sequence (P30411 1-391): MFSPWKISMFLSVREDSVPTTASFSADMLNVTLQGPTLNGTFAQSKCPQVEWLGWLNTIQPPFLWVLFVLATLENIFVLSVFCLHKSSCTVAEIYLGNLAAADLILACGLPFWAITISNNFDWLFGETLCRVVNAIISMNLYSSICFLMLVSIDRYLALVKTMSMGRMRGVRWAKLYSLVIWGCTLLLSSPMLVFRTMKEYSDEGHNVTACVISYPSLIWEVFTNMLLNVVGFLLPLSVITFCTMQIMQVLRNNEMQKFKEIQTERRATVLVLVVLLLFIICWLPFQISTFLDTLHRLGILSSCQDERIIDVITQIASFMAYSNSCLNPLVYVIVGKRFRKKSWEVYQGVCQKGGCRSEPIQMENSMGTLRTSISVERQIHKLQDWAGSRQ
Method: (§1) A human bradykinin B2 receptor was expressed in CHO/K cells. Briefly, approximately 2×10^6 plaques from a human uterus λgt10 cDNA library (Clontech Laboratories; Palo Alto, Calif.) were screened using a PCR fragment containing the coding region of the rat B2 receptor. This probe was generated by random-primed synthesis in the presence of α[^32 P]dATP. Duplicate filters were hybridized overnight at 42° C. in 1M NaCl, 50 mM Tris pH 7.5, 5× Denhardt's, 200 μg/ml salmon sperm DNA, 1% SDS, and 20% formamide. The filters were washed at 65° C. in 1× SSC and 1% SDS. Coincident positively hybridizing plaques were purified and rescreened with the same probe and stringency conditions. EcoRI fragments of positive clones were inserted into Bluescript/KS II+vector (Stratagene; La Jolla, Calif.) for sequence determination.
(§2) The nucleotide sequence of the cloned human B2 receptors was determined using double-stranded DNA and the dideoxy chain termination method. Commercially available T3 and T7 oligonucleotides (USB; Cleveland, Ohio) and synthetic 21-mer oligonucleotides (DNA/RNA Synthesizer; applied Biosystems Inc.; Palo Alto, Calif.) from both the known rat sequence and the determined human sequence were used to identify the nucleotide sequence from the 5' untranslated end to the BglII site in the 3' untranslated end of the clone.
(§3) CHO/K cells were plated in 2 ml of growth medium (Ham's F12 with 10% FBS) per 6 well plate and incubated at 37° C., 5% CO2 until they were 60% confluent. For each well, 4, 12, and 16 μg of DNA was diluted in 100 μl Opti-MEM I reduced serum medium (Gibco/BRL; Gaithersburg, Md.). 12 μl of TransfectASE reagent (Gibco/BRL) was diluted in a separate aliquot of 100 μl Opti-MEM I. The DNA and TransfecASE solutions were combined, mixed gently, and incubated at 25° C. for 15 minutes. This solution was then diluted to 1 ml with Opti-MEM I. Each well was washed twice with Opti-MEM I and 1 ml of the DNA/TransfectAse complex was added to each well. After a 5 hour incubation at 37° C. and 5% CO2, 1 ml of Ham's F12 with 20% FBS was added to each well and cells were incubated overnight. Media was replaced with growth medium and incubated for additional 24 hours.
(§4) This assay measures the ability of a bradykinin antagonist compound to compete for binding to the human B2 receptor with tritiated bradykinin or tritiated NPC17731, a bradykinin analog which is known to bind the B2 receptor and act as a bradykinin antagonist.
(§5) H2O.2 cells were grown to confluency in Ham's F12 media containing 10% FBS and 500 μg/ml Geneticin. Growth media was aspirated and the monolayer washed once with Dulbecco's PBS without Ca^++ and Mg^++. Cells were scraped in Dulbecco's PBS and centrifuged at 2,000×g for 10 minutes. Pellets were resuspended in 25 mM TES, 1 mM 1,10-phenanthroline pH 6.8 buffer and homogenized using a Ploytron at setting 5 for 10 seconds. An aliquot was taken for a protein determination using a BioRad protein assay kit. Membranes were centrifuged at 48,000×g for 10 minutes at 4° C. Pellets were resuspended in the TES buffer with 0.1% BSA and 0.014% bacitracin. 0.5 ml aliquots were frozen in liquid N2 and stored at -80° C. for up to 2 weeks.
(§6) Membranes from H2O.2 cells previously prepared were thawed at 37° C. and diluted in 25 mM TES, […] 1,10-phenanthroline pH 6.8 containing BSA and bactiracin. […] Non-specific binding was determined with 1 μM bradykinin. The tubes were incubated 90 minutes at 25° C. and the assay was terminated by rapid vacuum filtration onto Whatman GF/B filters presoaked with 0.2% PEI for 3 hours followed by 2×3 ml aliquots of ice-cold 50 mM Tris, pH 7.4. Radioactivity was counted with a Beckman scintillation counter.

SMILES	Ki [µM]
N=C(N)NCCC[C@@H](N)C(=O)N[C@@H](CCCNC(=N)N)C(=O)NCc1ccccc1/C=C/CC(=O)N[C@@H](CO)C(=O)N1Cc2ccccc2C[C@@H]1C(=O)N1[C@H](C(=O)N[C@@H](CCCNC(=N)N)C(=O)O)C[C@@H]2CCCC[C@@H]21 (H-[dR]R[X1]S[dTic][Oic]R-OH)	0.051

same assay, conditions: Table 2, read-out: Radioligand Binding, Ki Human 3HBK

SMILES	Ki [µM]
N=C(N)NCCC[C@@H](N)C(=O)N[C@@H](CCCNC(=N)N)C(=O)N1CCC2(CC1)C(=O)N(CC(=O)N1CCc3c(c4ccccc4n3CC(=O)N[C@@H](CCCNC(=N)N)C(=O)O)C1)CN2C1CCCCC1 [Compound 10]	0.229
COc1ccc(N2CN(CC(=O)N3CCc4c(c5ccccc5n4CC(=O)N[C@@H](CCCNC(=N)N)C(=O)O)C3)C(=O)C23CCN(C(=O)[C@H](CCCNC(=N)N)NC(=O)[C@H](N)CCCNC(=N)N)CC3)cc1 [Compound 9]	0.129
CCCN1CN(CC(=O)N2CCc3c(c4ccccc4n3CC(=O)N[C@@H](CCCNC(=N)N)C(=O)O)C2)C(=O)C12CCN(C(=O)[C@H](CCCNC(=N)N)NC(=O)[C@H](N)CCCNC(=N)N)CC2 [Compound 11]	0.473
N=C(N)NCCC[C@@H](N)C(=O)N[C@@H](CCCNC(=N)N)C(=O)N1CCc2c(n(CCC(=O)N3CCC4(CC3)C(=O)N(CC(=O)N[C@@H](CCCNC(=N)N)C(=O)O)CN4c3ccccc3)c3ccccc23)C1 [Compound 3]	0.57
Cc1cc(C)nc(NCCC[C@@H](NC(=O)Cn2c3c(c4ccccc42)CCN(C(=O)CN2CN(c4ccccc4)C4(CCN(C(=O)[C@H](N)CCCNC(=N)N)CC4)C2=O)C3)C(N)=O)n1 [Compound 16]	0.212
Cc1cc(C)nc(NCCC[C@@H](NC(=O)Cn2c3c(c4ccccc42)CN(C(=O)CN2CN(CC4CCCCC4)C4(CCN(C(=O)[C@H](CCCNC(=N)N)NC(=O)[C@H](N)CCCNC(=N)N)CC4)C2=O)CC3)C(N)=O)n1 [Compound 20]	0.052
N=C(N)NCCC[C@@H](N)C(=O)N[C@@H](CCCNC(=N)N)C(=O)N1CCC2(CC1)C(=O)N(CC(=O)N1CCc3c(c4ccccc4n3CC(=O)N[C@@H](CCCNC(=N)N)C(=O)O)C1)CN2c1ccccc1 [Compound 7]	0.325
Cc1cc(C)nc(NCCC[C@@H](NC(=O)Cn2c3c(c4ccccc42)CCN(C(=O)CN2CN(c4ccccc4)C4(CCN(C(=O)[C@@H](N)CCCNC(=N)N)CC4)C2=O)C3)C(N)=O)n1 [Compound 15]	0.285
Cc1cc(C)nc(NCCC[C@@H](NC(=O)Cn2c3c(c4ccccc42)CCN(C(=O)CN2CN(c4ccccc4)C4(CCN(C(=O)[C@H](CCCNC(=N)N)NC(=O)[C@H](N)CCCNC(=N)N)CC4)C2=O)C3)C(N)=O)n1 [Compound 14]	0.0784
N=C(N)NCCC[C@@H](N)C(=O)N[C@@H](CCCNC(=N)N)C(=O)N1CCC2(CC1)C(=O)N(CC(=O)N1CCc3c(n(CCC(=O)N[C@@H](CCCNC(=N)N)C(=O)O)c4ccccc34)C1)CN2c1ccccc1 [Compound 8]	0.223
N=C(N)NCCC[C@@H](N)C(=O)N[C@@H](CCCNC(=N)N)C(=O)N1CCC2(CC1)C(=O)N(CC(=O)N1CCc3c(n(CC(=O)N[C@@H](CCCNC(=N)N)C(=O)O)c4ccccc34)C1)CN2C1CCCCC1 [Compound 4]	1.4
N=C(N)NCCC[C@@H](N)C(=O)N[C@@H](CCCNC(=N)N)C(=O)N1CCC2(CC1)C(=O)N(CC(=O)N1CCc3c(c4ccccc4n3CC(=O)N[C@@H](CCCNC(=N)N)C(=O)O)C1)CN2CC1CCCCC1 [Compound 12]	0.168

molecular target: T1, human bradykinin B2 receptor; assay: Radioligand binding, H2O.2 cell membranes, 3H-NPC17731; conditions: not given
Method: as §1, §2, §3, §4, §5, §6

SMILES	Ki [µM]
N=C(N)NCCC[C@@H](N)C(=O)N[C@@H](CCCNC(=N)N)C(=O)N1CCC2(CC1)C(=O)N(CC(=O)N[C@@H](CO)C(=O)N1Cc3ccccc3C[C@@H]1C(=O)N1[C@H](C(=O)N[C@@H](CCCNC(=N)N)C(=O)O)C[C@@H]3CCCC[C@@H]31)CN2c1ccccc1 [drawing 59]	0.0078

same assay, conditions: Table 1; 3H-NPC17731; read-out: Radioligand Binding Human 3H17731

SMILES	Ki [µM]
N=C(N)NCCC[C@@H](N)C(=O)N[C@@H](CCCNC(=N)N)C(=O)N1CCC(n2c(=O)n(CC(=O)N[C@@H](CO)C(=O)N3Cc4ccccc4C[C@@H]3C(=O)N3[C@H](C(=O)N[C@@H](CCCNC(=N)N)C(=O)O)C[C@@H]4CCCC[C@@H]43)c3ccccc32)CC1 (H-[dR]R[X3]S[dTic][Oic]R-OH)	0.058
N=C(N)NCCC[C@@H](N)C(=O)N[C@@H](CCCNC(=N)N)C(=O)NCc1ccccc1/C=C/C(=O)N(CC(=O)N[C@@H](CO)C(=O)N1Cc2ccccc2C[C@@H]1C(=O)N1[C@H](C(=O)N[C@@H](CCCNC(=N)N)C(=O)O)C[C@@H]2CCCC[C@@H]21)Cc1ccccc1 (H-[dR]R[X2][Nphe]S[dTic][Oic]R-OH)	0.028
N=C(N)NCCC[C@@H](N)C(=O)N[C@@H](CCCNC(=N)N)C(=O)N1CCc2c(c3ccccc3n2CC(=O)N[C@@H](CO)C(=O)N2Cc3ccccc3C[C@@H]2C(=O)N2[C@H](C(=O)N[C@@H](CCCNC(=N)N)C(=O)O)C[C@@H]3CCCC[C@@H]32)C1 (H-[dR]R[X4]S[dTic][Oic]R-OH)	0.078
N=C(N)NCCC[C@@H](N)C(=O)N[C@@H](CCCNC(=N)N)C(=O)NCCCCCCCCCCCC(=O)N[C@@H](CO)C(=O)N1Cc2ccccc2C[C@@H]1C(=O)N1[C@H](C(=O)N[C@@H](CCCNC(=N)N)C(=O)O)C[C@@H]2CCCC[C@@H]21 (H-[dR]R[12Ado]S[dTic][Oic]R-OH)	0.031
N=C(N)NCCC[C@@H](N)C(=O)N[C@@H](CCCNC(=N)N)C(=O)NC/C=C/C(=O)N[C@@H](CO)C(=O)N1Cc2ccccc2C[C@@H]1C(=O)N1[C@H](C(=O)N[C@@H](CCCNC(=N)N)C(=O)O)C[C@@H]2CCCC[C@@H]21 (H-[dR]R[Butenoyl(2E,4-amino)]S[dTic][Oic]R-OH)	0.229
N=C(N)NCCC[C@@H](N)C(=O)N[C@@H](CCCNC(=N)N)C(=O)NCCCCCC(=O)N[C@@H](CO)C(=O)N1Cc2ccccc2C[C@@H]1C(=O)N1[C@H](C(=O)N[C@@H](CCCNC(=N)N)C(=O)O)C[C@@H]2CCCC[C@@H]21 (H-[dR]R[Ahx]S[dTic][Oic]R-OH)	0.1
N=C(N)NCCC[C@@H](N)C(=O)N[C@@H](CCCNC(=N)N)C(=O)NCc1ccccc1/C=C/CC(=O)N[C@@H](CO)C(=O)N1Cc2ccccc2C[C@@H]1C(=O)N1[C@H](C(=O)N[C@@H](CCCNC(=N)N)C(=O)O)C[C@@H]2CCCC[C@@H]21 (H-[dR]R[X1]S[dTic][Oic]R-OH)	0.017
N=C(N)NCCC[C@@H](N)C(=O)N[C@@H](CCCNC(=N)N)C(=O)Nc1ccc2c3ccccc3c(=O)n(CC(=O)N[C@@H](CO)C(=O)N3Cc4ccccc4C[C@@H]3C(=O)N3[C@H](C(=O)N[C@@H](CCCNC(=N)N)C(=O)O)C[C@@H]4CCCC[C@@H]43)c2c1 (H-[dR]R[X7]S[dTic][Oic]R-OH)	0.0033
N=C(N)NCCC[C@@H](N)C(=O)N[C@@H](CCCNC(=N)N)C(=O)NCCc1ccccc1/C=C/C(=O)N[C@@H](CO)C(=O)N1Cc2ccccc2C[C@@H]1C(=O)N1[C@H](C(=O)N[C@@H](CCCNC(=N)N)C(=O)O)C[C@@H]2CCCC[C@@H]21 (H-[dR]R[X6]S[dTic][Oic]R-OH)	0.023
